Data on four compounds can be found in patent publication US12421253B2 (Mirati Therapeutics, Inc., priority 2020, dated 2025).

One test has as its target T1, KRas^G12V (Homo sapiens, UniProt P01116, G12V).
T1 construct: […]; biotin (biotinylated); purchased Accelegan Inc
Put plainly: KRas binding assay (TR-FRET displacement of Cy5 labelled tracer). (In general: Time-resolved FRET reads energy transfer from a long-lived donor to a nearby acceptor.)

The target of another test is T2, KRas^WT (Homo sapiens, UniProt P01116).
T2 construct: […]; biotin (biotinylated); purchased Accelegan Inc
T2 sequence (P01116 1-169 isoform P01116-2): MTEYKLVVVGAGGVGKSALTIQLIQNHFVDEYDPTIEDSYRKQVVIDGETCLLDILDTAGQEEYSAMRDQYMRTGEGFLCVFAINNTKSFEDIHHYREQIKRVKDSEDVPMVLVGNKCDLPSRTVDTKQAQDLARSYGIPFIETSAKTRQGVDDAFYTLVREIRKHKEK
The test is described as above.

A further test has as its target KRas^G13D (Homo sapiens, UniProt P01116, G13D). Put plainly: biochemical.
The target of a further test is T3, KRas^G12S (Homo sapiens, UniProt P01116, G12S).
T3 construct: […]; biotin (biotinylated); purchased Accelegan Inc
T3 sequence (P01116 1-169 isoform P01116-2 G12S): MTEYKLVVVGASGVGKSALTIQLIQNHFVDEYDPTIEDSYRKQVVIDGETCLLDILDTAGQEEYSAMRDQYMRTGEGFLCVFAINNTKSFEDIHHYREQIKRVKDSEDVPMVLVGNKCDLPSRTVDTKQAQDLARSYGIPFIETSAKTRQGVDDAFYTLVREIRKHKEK
Put plainly: KRas binding assay (TR-FRET displacement of Cy5 labelled tracer).

Another test concerns the target KRas^G12C (Homo sapiens, UniProt P01116, G12C). Put plainly: biochemical.
Another test addresses T4, KRas^G12D (Homo sapiens, UniProt P01116, G12D).
T4 construct: […]; biotin (biotinylated); purchased Accelegan Inc
Put plainly: KRas binding assay (TR-FRET displacement of Cy5 labelled tracer).

In another test the target is KRas^Q61H (Homo sapiens, UniProt P01116, Q61H). Put plainly: biochemical.
Chain of KRas^Q61H (P01116 1-169 isoform P01116-2 Q61H): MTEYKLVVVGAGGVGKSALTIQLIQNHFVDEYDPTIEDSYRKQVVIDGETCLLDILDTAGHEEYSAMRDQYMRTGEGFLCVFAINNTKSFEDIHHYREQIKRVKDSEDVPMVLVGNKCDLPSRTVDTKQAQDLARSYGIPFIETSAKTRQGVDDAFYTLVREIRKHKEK
Another test has as its target T5, KRas^G12R (Homo sapiens, UniProt P01116, G12R).
T5 construct: […]; biotin (biotinylated); purchased Accelegan Inc
Put plainly: KRas binding assay (TR-FRET displacement of Cy5 labelled tracer).

The target of the next test is T6, KRas^G12A (Homo sapiens, UniProt P01116, G12A).
T6 construct: […]; biotin (biotinylated); purchased Accelegan Inc
T6 sequence (P01116 1-169 isoform P01116-2 G12A): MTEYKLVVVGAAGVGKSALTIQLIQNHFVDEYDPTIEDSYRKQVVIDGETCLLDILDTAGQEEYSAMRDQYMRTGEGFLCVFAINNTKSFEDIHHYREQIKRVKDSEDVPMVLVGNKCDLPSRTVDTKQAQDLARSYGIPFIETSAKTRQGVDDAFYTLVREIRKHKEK
Described as above.

T5 sequence (P01116 1-169 isoform P01116-2 G12R): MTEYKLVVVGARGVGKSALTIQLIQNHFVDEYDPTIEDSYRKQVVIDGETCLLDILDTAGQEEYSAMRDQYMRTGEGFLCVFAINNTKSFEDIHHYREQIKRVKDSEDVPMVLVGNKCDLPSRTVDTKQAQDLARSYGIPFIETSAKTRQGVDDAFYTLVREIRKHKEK
T1 sequence (P01116 1-169 isoform P01116-2 G12V): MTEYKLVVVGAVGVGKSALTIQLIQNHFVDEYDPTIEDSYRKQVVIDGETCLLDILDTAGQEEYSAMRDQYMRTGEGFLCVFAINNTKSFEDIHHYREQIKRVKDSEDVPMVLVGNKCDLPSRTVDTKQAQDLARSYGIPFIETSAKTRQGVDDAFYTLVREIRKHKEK
T4 sequence (P01116 1-169 isoform P01116-2 G12D): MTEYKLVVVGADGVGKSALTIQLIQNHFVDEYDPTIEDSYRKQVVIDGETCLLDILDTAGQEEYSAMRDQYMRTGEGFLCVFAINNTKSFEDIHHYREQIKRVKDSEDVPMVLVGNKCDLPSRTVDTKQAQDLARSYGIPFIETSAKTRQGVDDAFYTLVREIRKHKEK
Chain of KRas^G12C (P01116 1-169 isoform P01116-2 G12C): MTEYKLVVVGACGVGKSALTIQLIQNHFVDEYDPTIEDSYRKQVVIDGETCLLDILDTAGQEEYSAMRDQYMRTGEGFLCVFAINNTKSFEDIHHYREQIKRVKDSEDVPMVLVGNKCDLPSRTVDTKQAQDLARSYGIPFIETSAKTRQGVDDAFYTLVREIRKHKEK
Chain of KRas^G13D (P01116 1-169 isoform P01116-2 G13D): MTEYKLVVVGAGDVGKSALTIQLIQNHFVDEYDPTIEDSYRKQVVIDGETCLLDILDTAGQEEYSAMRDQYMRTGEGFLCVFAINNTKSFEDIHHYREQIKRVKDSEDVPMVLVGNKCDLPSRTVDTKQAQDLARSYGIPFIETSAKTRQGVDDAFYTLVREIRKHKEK
Protocol for KRas^G12A: (§1) The ability of a compound to bind to KRas was measured using a TR-FRET displacement assay. […] After a 60-minute incubation at room temperature, the reaction was measured using a BMG LABTECH CLARIO star Plus via TR-FRET. […] The POC values were fit to a 4-parameter IC50 equation and the IC50 value reported.
Protocol for KRas^G12C: as §1
Protocol for KRas^G12D: as §1
Protocol for KRas^G12R: as §1
Protocol for KRas^G12S: as §1
Protocol for KRas^G12V: as §1
Protocol for KRas^G13D: as §1
Protocol for KRas^Q61H: as §1
Protocol for KRas^WT: as §1

Usually IC50 stands for the midpoint of a concentration-inhibition curve. A higher IC50 goes with weaker potency. Regarding `CCc1cccc2cccc(N3CCc4c(nc(OCC56CCCN5CCC6)nc4NCCS(=O)(=O)N=S(C)(C)=O)C3)c12` [Example 165, N-(dimethyl(oxo)-16-sulfaneylidene)-2-((7-(8-ethylnaphthalen-1-yl)-2-((tetrahydro-1H-pyrrolizin-7a(5H)-yl)methoxy)-5,6,7,8-tetrahydropyrido[3,4-d]pyrimidin-4-yl)amino)ethane-1-sulfonamide], the IC50 at KRas^G12V came out at 4.34 µM; on KRas^WT, 5.92 µM; against KRas^G13D, 6.71 µM; on KRas^G12S, 8.07 µM; against KRas^G12C, 3.87 µM; on KRas^G12D, 14.2 µM. In addition, the figures for the IC50 against KRas^Q61H, on KRas^G12R and at KRas^G12A were 6.55 µM, 7.47 µM and 8.67 µM, respectively.
As for `CCc1cccc2cccc(N3CCc4c(nc(OCC56CCCN5CCC6)nc4N4CCCC(c5nnc(CO)n5C)C4)C3)c12` (stereo not drawn) [Example 166, (5-(1-(7-(8-ethylnaphthalen-1-yl)-2-((tetrahydro-1H-pyrrolizin-7a(5H)-yl)methoxy)-5,6,7,8-tetrahydropyrido[3,4-d]pyrimidin-4-yl)piperidin-3-yl)-4-methyl-4H-1,2,4-triazol-3-yl)methanol], the half-inhibitory concentration (IC50) at KRas^G12V came out at 7.32 µM; on KRas^WT, 4.81 µM; against KRas^G13D it was 4.8 µM; on KRas^G12S, 5.13 µM; at KRas^G12C, 4.15 µM; on KRas^G12D it was 9.85 µM. For the same compound, the half-maximal inhibitory concentration (IC50) on KRas^Q61H was 4.58 µM; at KRas^G12R it was 4.65 µM; at KRas^G12A, 5.51 µM.
With `CCc1cccc2cccc(N3CCc4c(nc(OCC56CCCN5CCC6)nc4NC4CCc5ncsc5C4)C3)c12` (stereo not drawn) [Example 168, N-(7-(8-ethylnaphthalen-1-yl)-2-((tetrahydro-1H-pyrrolizin-7a(5H)-yl)methoxy)-5,6,7,8-tetrahydropyrido[3,4-d]pyrimidin-4-yl)-4,5,6,7-tetrahydrobenzo[d]thiazol-6-amine], the IC50 was determined as 7.12 µM on KRas^G12V; 15 µM on KRas^WT; 21.9 µM against KRas^G13D; 9.63 µM on KRas^G12S; 5.39 µM against KRas^G12C; 26.4 µM at KRas^G12D. Further, the IC50 on KRas^Q61H was 14.6 µM; at KRas^G12R, 4.95 µM; on KRas^G12A, 11.1 µM.
For the compound `CCc1cccc2cccc(N3CCc4c(nc(OCC56CCCN5CCC6)nc4NC4CC5CC5C4)C3)c12` (stereo not drawn) [Example 170, N-(bicyclo[3.1.0]hexan-3-yl)-7-(8-ethylnaphthalen-1-yl)-2-((tetrahydro-1H-pyrrolizin-7a(5H)-yl)methoxy)-5,6,7,8-tetrahydropyrido[3,4-d]pyrimidin-4-amine], the IC50 at KRas^G12V worked out at 5.87 µM; on KRas^WT it was 17 µM; on KRas^G13D, 16.4 µM; on KRas^G12S it was 16.4 µM; at KRas^G12C, 15.1 µM; at KRas^G12D, 25 µM. The half-inhibitory concentration (IC50) was 17 µM on KRas^Q61H, 11.9 µM at KRas^G12R and 27.9 µM on KRas^G12A.
